Data on two compounds can be found in ChEMBL document CHEMBL1155714, “Spongiadioxins A and B, two new polybrominated dibenzo-p-dioxins from an Australian marine sponge Dysidea dendyi” (J Nat Prod, 2001).

Values after ≈ are worked out from the molar mass of the structure shown. Some results are limits rather than exact numbers.

Data set [1] is described as follows: Cytotoxicity against mouse EAC cells. The format is functional. To be noted: Ehrlich, read-out: ED50 (the source's name).
The nature of data set [2]: Toxicity against mouse. Format: organism-based. The settings on record: in vivo.

A word on the LD50: it is the dose expected to kill half of the subjects tested. A low value points to a more toxic substance. `Oc1cc(Br)c(Br)c2c1Oc1cc(Br)cc(Br)c1O2` [SPONGIADIOXIN A]: the EC50 in data set [1] was 29 µg/mL (≈ 56.2 µM). The LD50 in data set [2] is > 150 mg/kg.

Turning to `Oc1c(Br)c(Br)cc2c1Oc1cc(Br)cc(Br)c1O2` [SPONGIADIOXIN B], the EC50 in data set [1] worked out at 15.5 µg/mL (≈ 30.1 µM). In addition, the LD50 in data set [2] is > 150 mg/kg.
